Test [1] concerns the target T1, 5-HT uptake (serotonin reuptake) (Rattus norvegicus, UniProt P31652).
T1 construct: from tissue; host or cells: rat medulla and pons synaptosomes (P2 fraction)
The experiment in a line: 5HT uptake inhibition in rat brain synaptosomes (medulla and pons), [3H]-5-HT. It is filed as biochemical. To be noted: conc. 10 μM. The source says:
(§1) I. Method for Determining the Noradrenaline and 5HT Uptake Inhibition:
(§2) For in vitro studies, synaptosomes were freshly isolated from rat brain areas as described in the publication “The isolation of nerve endings from brain” by E. G. Gray and V. P. Whittaker, J. Anatomy 96, pages 79-88, 1962. The corresponding literature description is introduced hereby as reference and forms part of the disclosure.
(§3) The tissue (hypothalamus for determining the noradrenaline uptake inhibition and medulla and pons for determining the 5HT uptake inhibition) was homogenized in ice-cold 0.32 M sucrose (100 mg of tissue/1 ml) in a glass homogenizer with Teflon pestle using five full up and down strokes at 840 revolutions/minute. The homogenate was centrifuged at 1000 g and at 4° C. for 10 minutes. After subsequent centrifugation at 17 000 g for 55 minutes, the synaptosomes (P2 fraction) are obtained and were resuspended in 0.32 M […] (0.5 ml/100 mg of the original weight).
(§4) The respective uptake was measured in a 96-well microtiter plate. The volume was 250 μl and incubation took place at room temperature (approx. 20-25° C.) under an O2 atmosphere.
(§5) The incubation time was 7.5 minutes for [^3H]-NA and 5 minutes for [^3H]-5-HT. The 96 samples were then filtered through a Unifilter GF/B® microtiter plate (Packard) and washed with […] of incubated buffer using a “Brabdel MPXRI-96T Cell Harvester”. The Unifilter GF/B plate was dried at 55° C. for 1 h. The plate was then sealed with a Back Seal® (Packard) and 35 μl of scintillation fluid were added per well (Ultima Gold®, Packard). After sealing with a top Seal® (Packard), the radioactivity was determined, after equilibrium had been reached (about 5 h), in a “Trilux 1450 Microbeta” (Wallac).
(§6) The amount of protein employed in the above determination corresponded to the value disclosed in the literature, as described for example in “Protein measurement with the folin phenol reagent”, Lowry et al., J. Biol. Chem., 193, 265-275, 1951. A detailed description of the method can also be found in the literature, for example from M. Ch. Frink, H.-H. Hennies, W. Engelberger, M. Haurand and B. Wilffert (1996) Arzneim.-Forsch./Drug Res. 46 (III), 11, 1029-1036. The corresponding literature descriptions are hereby introduced as reference and form part of the disclosure.

Another test concerns the target T2, mGluR5 receptor (Sus scrofa, UniProt I3LUI7).
T2 construct: 450 μg of protein from brain homogenate are incubated with 5 nM^3[H]-MPEP; from tissue; host or cells: pig brain hemispheres without medulla, cerebellum and pons
The experiment in a line: Affinity for the mGluR5 receptor: displacement of 3[H]-MPEP binding in pig brain homogenate. To be noted: 10 μM compound, 5 nM 3[H]-MPEP. A digest of the protocol:
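Pig brain homogenate (450 μg protein) incubated with 5 nM 3[H]-MPEP and test compound at 10 μM for 60 min at room temperature. Displacement of radioligand binding measured after filtration.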

For another test, the target named is T3, NA transporter (Rattus norvegicus, UniProt Q63380).
T3 construct: from tissue; host or cells: rat hypothalamus synaptosomes (P2 fraction)
The test can be described thus: Noradrenaline (NA) uptake inhibition in rat brain synaptosomes (hypothalamus), [3H]-NA. Type of test: biochemical. To be noted: conc. 10 μM.
Source text: as §1, §2, §3, §4, §5
The following characteristic data were found for the NA transporter:
as §6

T2 sequence (I3LUI7 19-1212): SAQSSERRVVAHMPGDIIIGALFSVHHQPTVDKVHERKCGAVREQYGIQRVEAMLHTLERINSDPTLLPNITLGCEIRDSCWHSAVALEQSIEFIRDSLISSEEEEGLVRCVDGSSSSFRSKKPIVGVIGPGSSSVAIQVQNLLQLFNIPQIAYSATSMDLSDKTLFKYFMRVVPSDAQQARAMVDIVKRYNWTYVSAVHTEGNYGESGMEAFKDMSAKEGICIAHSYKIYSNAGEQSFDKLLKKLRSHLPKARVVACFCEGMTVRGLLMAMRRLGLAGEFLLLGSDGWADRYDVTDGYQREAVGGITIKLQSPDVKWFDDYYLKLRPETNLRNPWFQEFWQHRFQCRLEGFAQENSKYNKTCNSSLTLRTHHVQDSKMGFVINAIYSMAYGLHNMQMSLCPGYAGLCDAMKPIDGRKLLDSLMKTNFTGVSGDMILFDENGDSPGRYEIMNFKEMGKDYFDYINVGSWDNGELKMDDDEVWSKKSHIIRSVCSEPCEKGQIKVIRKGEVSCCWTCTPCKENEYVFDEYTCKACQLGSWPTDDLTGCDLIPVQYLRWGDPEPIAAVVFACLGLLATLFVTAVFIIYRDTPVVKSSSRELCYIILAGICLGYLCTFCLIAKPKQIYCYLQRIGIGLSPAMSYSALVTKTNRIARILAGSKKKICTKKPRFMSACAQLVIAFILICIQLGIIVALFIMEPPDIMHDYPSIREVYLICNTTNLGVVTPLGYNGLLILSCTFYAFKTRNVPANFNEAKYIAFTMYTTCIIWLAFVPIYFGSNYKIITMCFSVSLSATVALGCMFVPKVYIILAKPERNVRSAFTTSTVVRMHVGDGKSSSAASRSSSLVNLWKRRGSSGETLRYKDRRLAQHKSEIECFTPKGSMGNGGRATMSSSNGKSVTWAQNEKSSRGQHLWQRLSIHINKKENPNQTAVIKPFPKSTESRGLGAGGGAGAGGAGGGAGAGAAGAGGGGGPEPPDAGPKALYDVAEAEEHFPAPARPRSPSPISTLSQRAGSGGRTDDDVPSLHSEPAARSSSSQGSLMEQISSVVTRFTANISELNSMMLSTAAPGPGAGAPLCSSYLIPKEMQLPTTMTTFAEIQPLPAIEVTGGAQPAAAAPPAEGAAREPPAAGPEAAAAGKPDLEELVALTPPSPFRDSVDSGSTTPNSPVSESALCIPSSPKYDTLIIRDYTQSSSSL
T1 sequence (P31652 whole entry): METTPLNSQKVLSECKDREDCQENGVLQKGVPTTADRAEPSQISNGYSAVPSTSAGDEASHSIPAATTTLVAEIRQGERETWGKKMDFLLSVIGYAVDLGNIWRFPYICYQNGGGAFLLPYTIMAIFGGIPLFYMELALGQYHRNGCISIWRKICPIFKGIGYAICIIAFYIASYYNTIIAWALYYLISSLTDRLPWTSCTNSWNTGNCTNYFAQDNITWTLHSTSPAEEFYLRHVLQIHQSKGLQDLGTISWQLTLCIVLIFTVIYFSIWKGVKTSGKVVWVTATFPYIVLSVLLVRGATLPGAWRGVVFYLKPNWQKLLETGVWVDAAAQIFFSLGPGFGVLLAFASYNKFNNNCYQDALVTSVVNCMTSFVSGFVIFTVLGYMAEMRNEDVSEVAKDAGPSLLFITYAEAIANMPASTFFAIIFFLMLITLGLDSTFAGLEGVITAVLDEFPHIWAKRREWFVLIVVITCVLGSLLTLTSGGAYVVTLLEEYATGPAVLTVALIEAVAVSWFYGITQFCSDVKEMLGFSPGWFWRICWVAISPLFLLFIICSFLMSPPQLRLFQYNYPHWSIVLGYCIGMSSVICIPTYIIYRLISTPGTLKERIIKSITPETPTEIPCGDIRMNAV
T3 sequence (Q63380 1-617): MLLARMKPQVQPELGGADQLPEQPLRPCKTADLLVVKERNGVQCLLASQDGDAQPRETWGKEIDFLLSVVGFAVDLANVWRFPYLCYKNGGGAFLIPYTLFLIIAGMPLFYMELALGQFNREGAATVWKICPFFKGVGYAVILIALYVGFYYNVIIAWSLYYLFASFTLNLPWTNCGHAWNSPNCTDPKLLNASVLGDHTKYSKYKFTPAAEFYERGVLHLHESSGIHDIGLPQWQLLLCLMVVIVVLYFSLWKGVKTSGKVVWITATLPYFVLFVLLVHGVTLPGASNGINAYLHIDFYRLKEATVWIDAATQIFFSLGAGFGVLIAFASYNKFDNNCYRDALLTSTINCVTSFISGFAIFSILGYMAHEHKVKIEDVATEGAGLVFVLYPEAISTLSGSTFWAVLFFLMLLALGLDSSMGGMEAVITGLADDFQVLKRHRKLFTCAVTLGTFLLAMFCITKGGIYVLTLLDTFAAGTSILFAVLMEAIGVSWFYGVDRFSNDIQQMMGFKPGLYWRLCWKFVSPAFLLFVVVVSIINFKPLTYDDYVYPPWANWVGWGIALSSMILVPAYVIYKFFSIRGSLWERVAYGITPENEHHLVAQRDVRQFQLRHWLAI

Consider `COc1ccccc1C(=O)Nc1noc2cccc(OCC(F)(F)F)c12` [Example 39, 2-methoxy-N-[4-(2,2,2-trifluoroethoxy)benzo[d]isoxazol-3-yl]benzamide], for which the inhibition at 10 µM stood at 82% in test [1] and 30.5% at mGluR5 receptor.

Take `Cc1ccccc1C(=O)Nc1noc2ccc(F)cc12` [Example 28, N-(5-fluorobenzo[d]isoxazol-3-yl)-2-methylbenzamide]: the values for the inhibition at 10 µM (in test [1]; on mGluR5 receptor) were 91% and 35%, respectively.

Consider `O=C(Nc1noc2cc(Cl)ccc12)c1cccc(C(F)(F)F)c1F` [Example 19, N-(6-chlorobenzo[d]isoxazol-3-yl)-2-fluoro-3-trifluoromethylbenzamide], for which the inhibition at 10 µM in test [1] was found to be 77%; on NA transporter it was 63%.

As for `O=C(Nc1noc2cccc(OCC(F)(F)F)c12)c1ccccc1Br` [Example 36, 2-bromo-N-[4-(2,2,2-trifluoroethoxy)benzo[d]isoxazol-3-yl]benzamide], the values for the inhibition at 10 µM (in test [1]; on mGluR5 receptor) were 84% and 30.3%, respectively.

With `O=C(Nc1noc2ccc(Br)cc12)c1ccc(F)cc1F` [Example 30, N-(5-bromobenzo[d]isoxazol-3-yl)-2,4-difluorobenzamide], the inhibition at 10 µM is 79% in test [1] and 45.2% at mGluR5 receptor.

On to `Cc1ccc2onc(NC(=O)c3cccc(F)c3)c2c1` [Example 32, 3-fluoro-N-(5-methylbenzo[d]isoxazol-3-yl)benzamide], for which the inhibition at 10 µM in test [1] was determined as 89%; at mGluR5 receptor, 40.1%.

By inhibition is commonly meant the share of the control response that was lost under treatment. Low values mean little suppression, high ones strong suppression.

The record behind these values is patent publication US20080312301A1, “Substituted N-Benzo[D]Isoxazol-3-Yl-Amine Compounds as Inhibitors of Mglur5, Serotonin (5-Ht) and Noradrenaline Receptors, and Uses Thereof” (Gruenenthal GmbH, priority 2005, published 2008).
